Test results from PubChem BioAssay (NCI).
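How tested: cells in 96-well plates exposed to compound for 48 hours at five concentrations. The concentration for 50% growth inhibition is given as GI50. TGI: total growth inhibition.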

Legend:
Assay in all cases: NCI anticancer screen, dose series, 48 h
[1] = tested on: 786-0 renal
[2] = tested on: A498 renal
[3] = tested on: A549 NSCLC
[4] = tested on: ACHN renal
[5] = tested on: BT-549 breast
[6] = tested on: CCRF-CEM leukemia
[7] = tested on: COLO 205 colon
[8] = tested on: DU-145 prostate
[9] = tested on: HCC-2998 colon
[10] = tested on: HCT-116 colon
[11] = tested on: HCT-15 colon
[12] = tested on: HL-60(TB) leukemia
[13] = tested on: HOP-62 NSCLC
[14] = tested on: HOP-92 NSCLC
[15] = tested on: HS 578T breast
[16] = tested on: HT29 colon
[17] = tested on: IGROV1 ovarian
[18] = tested on: K-562 leukemia
[19] = tested on: KM12 colon
[20] = tested on: LOX IMVI melanoma
[21] = tested on: M14 melanoma
[22] = tested on: MALME-3M melanoma
[23] = tested on: MCF7 breast
[24] = tested on: MDA-MB-231 breast
[25] = tested on: MDA-MB-435
[26] = tested on: MOLT-4 leukemia
[27] = tested on: NCI-H226 lung
[28] = tested on: NCI-H23 lung
[29] = tested on: NCI-H460 lung
[30] = tested on: NCI-H522 lung
[31] = tested on: NCI/ADR-RES ovarian
[32] = tested on: OVCAR-3 ovarian
[33] = tested on: OVCAR-4 ovarian
[34] = tested on: OVCAR-5 ovarian
[35] = tested on: OVCAR-8 ovarian
[36] = tested on: PC-3 prostate
[37] = tested on: RPMI-8226 leukemia
[38] = tested on: RXF 393 renal
[39] = tested on: SF-268 CNS
[40] = tested on: SF-295 CNS
[41] = tested on: SF-539 CNS
[42] = tested on: SK-MEL-2 melanoma
[43] = tested on: SK-MEL-28 melanoma
[44] = tested on: SK-MEL-5 melanoma
[45] = tested on: SK-OV-3 ovarian
[46] = tested on: SN12C renal
[47] = tested on: SNB-19 CNS
[48] = tested on: SNB-75 CNS
[49] = tested on: SR leukemia
[50] = tested on: SW-620 colon
[51] = tested on: T-47D breast
[52] = tested on: TK-10 renal
[53] = tested on: U251 CNS
[54] = tested on: UACC-62 melanoma
[55] = tested on: UO-31 renal
[56] = tested on: CAKI-1 renal
[57] = tested on: UACC-257 melanoma

O=C(Nc1ccc(OCc2nnc(-c3ccccc3)o2)c(F)c1)Nc1ccc(Cl)c(C(F)(F)F)c1
GI50 [1]: 2.11 µM | TGI [1]: 4.21 µM | GI50 [2]: 1.61 µM | TGI [2]: 4.25 µM | GI50 [3]: 1.91 µM | TGI [3]: 35.5 µM | GI50 [4]: 1.84 µM | TGI [4]: 4.42 µM | GI50 [5]: 3.51 µM | TGI [5]: 13.1 µM | GI50 [6]: 2.38 µM | TGI [6]: 10.6 µM | GI50 [7]: 2.11 µM | TGI [7]: 5.52 µM | GI50 [8]: 1.8 µM | TGI [8]: 3.53 µM | GI50 [9]: 2.58 µM | TGI [9]: 7.83 µM | GI50 [10]: 1.81 µM | TGI [10]: 6.37 µM | GI50 [11]: 2.28 µM | TGI [11]: 14.8 µM | GI50 [12]: 1.99 µM | TGI [12]: 4.61 µM | GI50 [13]: 2.84 µM | TGI [13]: 7.95 µM | GI50 [14]: 1.78 µM | TGI [14]: 5.17 µM | GI50 [15]: 2 µM | TGI [15]: 7.09 µM | GI50 [16]: 2.33 µM | TGI [16]: 9.9 µM | GI50 [17]: 2.12 µM | TGI [17]: 5.23 µM | GI50 [18]: 2.07 µM | TGI [18]: 8.79 µM | GI50 [19]: 1.47 µM | TGI [19]: 5.09 µM | GI50 [20]: 2.83 µM | TGI [20]: 12.9 µM | GI50 [21]: 2.97 µM | TGI [21]: 47 µM | GI50 [22]: 1.78 µM | TGI [22]: 4.98 µM | GI50 [23]: 2.29 µM | TGI [23]: 8.93 µM | GI50 [24]: 2.3 µM | TGI [24]: 6.03 µM | GI50 [25]: 2.71 µM | TGI [25]: > 100 µM | GI50 [26]: 1.61 µM | TGI [26]: 7.13 µM | GI50 [27]: 3.65 µM | TGI [27]: 28.3 µM | GI50 [28]: 2.37 µM | TGI [28]: 8.09 µM | GI50 [29]: 1.52 µM | TGI [29]: 3.7 µM | GI50 [30]: 1.51 µM | TGI [30]: 4.87 µM | GI50 [31]: 2.27 µM | TGI [31]: 7.65 µM | GI50 [32]: 2.06 µM | TGI [32]: 7.25 µM | GI50 [33]: 2.49 µM | TGI [33]: 8.52 µM | GI50 [34]: 7.56 µM | TGI [34]: > 100 µM | GI50 [35]: 2.57 µM | TGI [35]: 11.5 µM | GI50 [36]: 1.3 µM | TGI [36]: 4.85 µM | GI50 [37]: 1.11 µM | TGI [37]: 3.57 µM | GI50 [38]: 2.62 µM | TGI [38]: 8.98 µM | GI50 [39]: 3.52 µM | TGI [39]: 19.2 µM | GI50 [40]: 2.18 µM | TGI [40]: 6.83 µM | GI50 [41]: 2.41 µM | TGI [41]: 13 µM | GI50 [42]: 2.64 µM | TGI [42]: 7.12 µM | GI50 [43]: 3.08 µM | TGI [43]: > 100 µM | GI50 [44]: 1.74 µM | TGI [44]: 3.59 µM | GI50 [45]: 3.17 µM | TGI [45]: 9.46 µM | GI50 [46]: 1.91 µM | TGI [46]: 6.23 µM | GI50 [47]: 2.35 µM | TGI [47]: 16.7 µM | GI50 [48]: 1.64 µM | TGI [48]: 5.08 µM | GI50 [49]: 1.37 µM | TGI [49]: 4.31 µM | GI50 [50]: 3.6 µM | TGI [50]: 35.4 µM | GI50 [51]: 2.31 µM | TGI [51]: 7.15 µM | GI50 [52]: 2.62 µM | TGI [52]: 8.24 µM | GI50 [53]: 1.54 µM | TGI [53]: 4.68 µM | GI50 [54]: 2.48 µM | TGI [54]: 6.91 µM | GI50 [55]: 1.49 µM | TGI [55]: 2.93 µM

COc1ccc(-c2nn(-c3cccc(NC(=O)c4cccc(C(F)(F)F)c4)c3)cc2-c2ccncc2)cc1Cl
GI50 [1]: 2.91 µM | TGI [1]: 27.5 µM | GI50 [2]: 1.03 µM | TGI [2]: 4.68 µM | GI50 [3]: 2.7 µM | TGI [3]: > 100 µM | GI50 [4]: 4.4 µM | TGI [4]: > 100 µM | GI50 [5]: 3.14 µM | TGI [5]: > 100 µM | GI50 [56]: 2.57 µM | TGI [56]: > 100 µM | GI50 [6]: 1.9 µM | TGI [6]: > 100 µM | GI50 [7]: 1.77 µM | TGI [7]: 3.53 µM | GI50 [8]: 4.36 µM | TGI [8]: > 100 µM | GI50 [9]: 3.29 µM | TGI [9]: 17 µM | GI50 [10]: 3.05 µM | TGI [10]: > 100 µM | GI50 [11]: 2 µM | TGI [11]: > 100 µM | GI50 [12]: 2.96 µM | TGI [12]: 8.64 µM | GI50 [13]: 3.07 µM | TGI [13]: > 100 µM | GI50 [14]: 1 µM | TGI [14]: 6.54 µM | GI50 [15]: 1.54 µM | TGI [15]: 8.74 µM | GI50 [16]: 2.92 µM | TGI [16]: 27.7 µM | GI50 [17]: 7.06 µM | TGI [17]: > 100 µM | GI50 [18]: 0.837 µM | TGI [18]: > 100 µM | GI50 [19]: 1.35 µM | TGI [19]: 9.7 µM | GI50 [20]: 3.08 µM | TGI [20]: 27.2 µM | GI50 [21]: 2.23 µM | TGI [21]: 25.3 µM | GI50 [22]: 1.46 µM | TGI [22]: > 100 µM | GI50 [23]: 1.81 µM | TGI [23]: 24.8 µM | GI50 [24]: 1.77 µM | TGI [24]: 16.1 µM | GI50 [25]: 0.343 µM | TGI [25]: 2.03 µM | GI50 [26]: 2.62 µM | TGI [26]: > 100 µM | GI50 [27]: 4.92 µM | TGI [27]: > 100 µM | GI50 [28]: 3.58 µM | TGI [28]: 92.8 µM | GI50 [29]: 2.95 µM | TGI [29]: > 100 µM | GI50 [30]: 0.475 µM | TGI [30]: 3.55 µM | GI50 [31]: 1.75 µM | TGI [31]: 14 µM | GI50 [33]: 6.24 µM | TGI [33]: > 100 µM | GI50 [34]: 12.2 µM | TGI [34]: > 100 µM | GI50 [35]: 3.34 µM | TGI [35]: > 100 µM | GI50 [36]: 1.98 µM | TGI [36]: > 100 µM | GI50 [37]: 2.5 µM | TGI [37]: 49 µM | GI50 [38]: 1.46 µM | TGI [38]: 7.78 µM | GI50 [39]: 4.08 µM | TGI [39]: > 100 µM | GI50 [40]: 2.37 µM | TGI [40]: 9.91 µM | GI50 [41]: 1.77 µM | TGI [41]: 6.01 µM | GI50 [42]: 3 µM | TGI [42]: 13.2 µM | GI50 [43]: 3.07 µM | TGI [43]: 36 µM | GI50 [44]: 1.06 µM | TGI [44]: 4.4 µM | GI50 [45]: 3.91 µM | TGI [45]: > 100 µM | GI50 [46]: 5.06 µM | TGI [46]: > 100 µM | GI50 [47]: 5.7 µM | TGI [47]: > 100 µM | GI50 [48]: 1.17 µM | TGI [48]: 4.07 µM | GI50 [49]: 0.605 µM | TGI [49]: 5.44 µM | GI50 [50]: 4.07 µM | TGI [50]: > 100 µM | GI50 [51]: 2.56 µM | TGI [51]: > 100 µM | GI50 [52]: 6.77 µM | TGI [52]: > 100 µM | GI50 [53]: 1.8 µM | TGI [53]: 17.6 µM | GI50 [57]: 6.67 µM | TGI [57]: 61.7 µM | GI50 [54]: 2.27 µM | TGI [54]: 24 µM | GI50 [55]: 2.85 µM | TGI [55]: > 100 µM
